# Experimental data from patent publication US8785430B2, “Compound that can inhibit UBC13-UEV interactions, pharmaceutical compositions and therapeutic uses” (Consejo Superior de Investigaciones Cientificas, priority 2006, dated 2014).
# Like-named read-outs stand apart in the source and are kept apart here.
# Key:
# PC-3.Sluc cells tumors = assay: PC-3.Sluc tumor xenografts in Balb/c nu/nu mice, light emission (RLUs); type: in vivo; conditions: doxorubicin alone i.v., 5 mg/Kg, once a week; 56 days
# Protocol: For the purpose of determining if Varubin has an in vivo antitumor activity, its effects in mice having tumors formed from PC-3 cells were analyzed. The experimental tumors were formed by means of the intramuscular inoculation of PC-3.Sluc cells. The latter are PC-3 prostate cells in which they have been integrated by means of transfecting plasmid pRC/CMV-luc, which expresses the firefly (Photinus pyralis) luciferase gene in mammalian cells q. The incubation of the PC-3.luc cells with D-luciferin, a luciferase substrate, produces light, which can be quantified in an absolute manner (number of photons) either by means of a luminometer or by means of detection with a CCD (charge-coupled device) camera. The latter process further allows representing in real time images of the location of the tumor cells in the inoculated animals, as well as the tumor size, since the intensity of the light (number of photons) emitted in the presence of luciferin is directly proportional to the number of PC-3.luc cells.
# For these studies, 24 male Balb/c nu/nu mice (Charles River Laboratories) of an age of 6 weeks were used. These animals were kept in a pathogen-free environment at all times, having been kept in the animal housing facility for 1 week after they were received, before the experimental handling. After being anesthetized by means of an intraperitoneal (i.p.) injection of a mixture at equal parts of 6 mg/Kg of droperidol (Roche, Basel, Switzerland) and 12 mg/Kg of midazolam (Rovi S.A, Madrid, Spain), intramuscular (i.m.) injections were performed both in the right leg and in the left leg of each animal of 1×10^6 PC-3.Sluc cells, suspended in 100 μL of fetal bovine serum-free culture medium. The development of tumors in the inoculation sites was allowed for 2 weeks, after which a first measurement of photons emitted was made and a first capture of images with an ORCA-2BT Imaging System instrument (Hammamatsu Photonics) provided with a C4742-98-LWG-MOD model CCD camera (cooled at −80° C.) was done at a resolution of 512×512 pixels. […] Four minutes later, photons were detected and quantified for 5 minutes in the instrument described above. […] The quantification and the analysis of photons were performed with the aid of the image analysis program WASABI (Hamamatsu Photonics). […] For the graphic representations, the quantitative data (RLUs) were standardized, for each tumor, in relation to the RLUs of day 0 of treatment.
# The 24 mice, having luminescent tumors in both legs, were included in 4 experimental groups: (1) Control group, in which an intravenous (i.v.) injection of 100 μL of phosphate buffered saline pH 7.4 (PBS) and 50 μL of intratumoral (i.t.) PBS was performed. […] The light emission of the tumors was analyzed throughout 56 days from the start of the treatment.
# PC-3 cells = assay: CyQuant cell count, sensitization to doxorubicin; type: cell-based, human; conditions: Homo sapiens
# Protocol: The addition of 100 μM of Ia reduced the IC50 of doxorubicin to 0.1 μM for PC-3 cells and the IC50 of etoposide to 0.04 μM for HeLa cells. Therefore, the treatment with 100 μM of compound Ia causes a sensitization to the cytotoxic effects of doxorubicin of 5 times (PC-3 cells) and a sensitization to the cytotoxic effects of etoposide of 30 times (HeLa cells).
# HeLa cells = assay: CyQuant cell count, sensitization to etoposide; conditions: Homo sapiens, HeLa, 24 h, read-out: IC50 for etoposide
Compound,tumor growth (RLUs) (PC-3.Sluc cells tumors),"IC50 (PC-3 cells; 72 hours of treatment, doxorubicin alone, read-out: IC50 for doxorubicin) [nM]","IC50 (PC-3 cells; plus 100 μM of Ia, read-out: IC50 of doxorubicin with addition of Ia) [nM]",IC50 (HeLa cells) [nM]
COc1cccc2c1C(=O)c1c(O)c3c(c(O)c1C2=O)C[C@@](O)(C(=O)CO)C[C@@H]3O[C@H]1C[C@H](N)[C@H](O)[C@H](C)O1 [doxorubicin],hardly experienced growth,~500,100,
"COc1cc([C@@H]2c3cc4c(cc3[C@@H](O[C@@H]3O[C@@H]5CO[C@@H](C)O[C@H]5[C@H](O)[C@H]3O)[C@H]3COC(=O)[C@H]23)OCO4)cc(OC)c1O [etoposide, reference compound]",,,,~1250
